The subject of one series is edema in mouse's ear. In words: Depressant action on edema in mouse's ear (TPA-induced, myeloperoxidase). The series is classed as in vivo, ICR mouse. Conditions: topical on ear, TPA 25 μg, 5 hours. Here is the method: (§1) Regarding the compounds in some of the above Examples and indomethacin, depressant action on edema in mouse's ear and depressant action on edema in mouse's foot being induced by carrageenan are being measured by the following 2 methods. And the results of the depressant action on edema in mouse's ear and depressant action on edema in mouse's foot being induced by carrageenan are shown in Table 5.
1. Measurement of Depressant Action on Edama in Mouse's Ear
At 30 minutes after coating the left ear of ICR mouse, weighing 20 g, with a solution of appropriate amount of sample in 20 μl of mixed solvent DMSO:acetone(1:9), 25 μg of TPA(tetradecanoylphorbol acetate) was coated on both ears. The determination of depressant action on edama was made in 5 hours later by the number of neutral granulocyte gathering in the ear after inducing TPA inflammation. The number of neutral granulocyte was estimated by measuring the activation of myeloperoxidase.

The next series deals with T1, COX-1 (Mus musculus, UniProt P22437).
T1 construct: there is no pre-treatment of aspirin and LPS in the adhesion of macrophage; endogenous in cells; host or cells: peritoneal macrophages of C57BL/6 mouse, without aspirin and LPS pre-treatment
T1 sequence (P22437 27-602): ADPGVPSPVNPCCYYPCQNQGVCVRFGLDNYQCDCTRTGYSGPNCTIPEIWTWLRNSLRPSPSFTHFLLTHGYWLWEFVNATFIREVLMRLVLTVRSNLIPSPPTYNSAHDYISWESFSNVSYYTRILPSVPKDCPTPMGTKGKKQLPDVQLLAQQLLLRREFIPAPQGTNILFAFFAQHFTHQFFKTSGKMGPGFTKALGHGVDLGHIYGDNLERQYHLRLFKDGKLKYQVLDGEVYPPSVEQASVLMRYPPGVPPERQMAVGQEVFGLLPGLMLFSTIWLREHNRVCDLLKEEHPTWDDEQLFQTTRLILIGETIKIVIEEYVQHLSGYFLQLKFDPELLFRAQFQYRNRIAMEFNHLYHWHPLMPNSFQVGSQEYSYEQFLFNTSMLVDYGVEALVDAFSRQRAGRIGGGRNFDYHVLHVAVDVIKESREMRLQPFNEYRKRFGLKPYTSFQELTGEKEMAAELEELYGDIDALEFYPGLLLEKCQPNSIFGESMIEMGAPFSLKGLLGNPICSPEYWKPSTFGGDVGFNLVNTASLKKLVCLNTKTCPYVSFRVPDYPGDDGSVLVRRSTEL
In words: Evaluation of COX-1's inhibition efficacy (macrophages without aspirin and LPS pre-treatment). It is filed as cell-based, C57BL/6 mouse. Particulars: for inhibition at 10 µg/mL: 10 μg/ml; for inhibition at 1 µg/mL: 1 μg/ml. The method in brief: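 C57BL/6 mouse peritoneal macrophages (1×10^6 cells/mL) were adhered for 2 h at 37° C without aspirin or LPS pretreatment. Compound was given for 10 min at 37° C, then arachidonic acid (10 μM final) for 10 min. Supernatant PGE2 was measured by radioimmunoassay, with 100% activity set as PGE2 with versus without arachidonic acid.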

A further series deals with T2, COX-2 (Mus musculus, UniProt Q05769).
T2 construct: endogenous in cells; host or cells: peritoneal macrophages of C57BL/6 mouse, aspirin-pretreated, LPS-induced
T2 sequence (Q05769 18-604): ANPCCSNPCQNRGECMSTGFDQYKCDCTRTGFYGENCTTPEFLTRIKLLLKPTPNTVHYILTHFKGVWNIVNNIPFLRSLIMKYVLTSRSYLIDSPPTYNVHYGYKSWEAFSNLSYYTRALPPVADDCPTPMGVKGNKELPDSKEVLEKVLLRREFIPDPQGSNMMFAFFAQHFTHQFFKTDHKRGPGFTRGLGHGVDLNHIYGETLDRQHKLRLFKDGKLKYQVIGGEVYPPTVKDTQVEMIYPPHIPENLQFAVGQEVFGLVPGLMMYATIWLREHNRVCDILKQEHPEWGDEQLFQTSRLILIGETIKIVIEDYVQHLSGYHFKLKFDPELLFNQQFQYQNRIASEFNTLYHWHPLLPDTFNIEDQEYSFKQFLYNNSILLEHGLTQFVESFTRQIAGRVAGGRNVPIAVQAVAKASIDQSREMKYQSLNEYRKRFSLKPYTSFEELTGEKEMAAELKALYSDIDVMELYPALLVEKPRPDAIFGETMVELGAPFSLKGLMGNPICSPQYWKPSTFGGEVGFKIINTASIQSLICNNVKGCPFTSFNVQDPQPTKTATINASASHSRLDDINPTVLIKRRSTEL
Nature of the series: Evaluation of COX-2's inhibition efficacy (PGE2 radioimmuno assay, LPS-induced, aspirin-pretreated peritoneal macrophages). Conditions: for inhibition at 0.1 µg/mL: 0.1 μg/ml; for inhibition at 1 µg/mL: 1 μg/ml; for inhibition at 10 µg/mL: 10 μg/ml. The series is classed as cell-based, C57BL/6 mouse. In outline:
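C57BL/6 mouse peritoneal macrophages, adhered 2 h at 37 °C, were LPS-stimulated to induce COX-2. Cells were then treated 10 min with compound, followed by 10 min with 10 μM arachidonic acid (final). PGE2 in the supernatant was quantified by radioimmunoassay.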

In series [1] the test system is edema in mouse's foot induced by carrageenan. Nature of the series: Depressant action on edema in mouse's foot induced by carrageenan. The series is classed as in vivo, Male Sprague-Dawley rat. Particulars: po; for inhibition in vivo at 50 mg/kg: 50 mg/kg p.o.; for inhibition in vivo at 30 mg/kg: 30 mg/kg p.o. As to the method:
as §1
2. Measurement of Depressant Action on Edama in Mouse's Foot Induced by Carrageenan
At 1 hour after oral administering to Male-Sprague-Dawley-white mouse, weighing 150˜200 g, with a suspended solution of appropriate amount of sample in 0.5% of carboxymethyl cellulose and 0.2% of TWEN solution, edema on the right foot of mouse was induced by injecting 0.1 ml(1%) of carrageenan-saline solution. Right after the inducement of edema by carrageenan and 3 hours later, the edema rate was estimated by measuring white mouse's foot volume with Displacement Plethysmometer(Ugo Basile, Italy). Carrageenan injection Drug was administered 1 hour before the carrageenan injection. Depressant rate of edema is produced by the following equation 1.
% Depressant rate of edema=(1 ? Vtreated group/ ? Vcontrol group)×100 ? V: change of foot volume [Equation 1]

Where [2] appears, read: 3 h, read-out: depressant rate of edema rate induced by carrageenan (oral administration), % depression.

The text below walks through data of US6340694B1, “Diarylbenzopyran derivatives as cyclooxygenase-2 inhibitors” (Pacific Corporation, priority 1998, dated 2002).

As usually defined, the inhibition is the drop in the measured response relative to a control, in per cent. For orientation: melting point means the temperature, or range, at which the solid turns liquid.

As to `CS(=O)(=O)c1ccc(-c2oc3ccccc3c(=O)c2-c2ccc(F)cc2)cc1` [Example 1, 3-(4-Fluorophenyl)-2-(4-(methylsulfonyl)phenyl)-4H-1-benzo-pyran-4-one], the “depressant rate of ear edema, ED50” value in the series on edema in mouse's ear was 0.4 mg/ear, ED50. The inhibition at 10 µg/mL at COX-1 was below 5%. Besides, at COX-2, the inhibition at 0.1 µg/mL was determined as 94% and the inhibition at 1 µg/mL came to 100%. Further, in series [1] (setting [2]), the inhibition in vivo at 50 mg/kg was 43%.

Turning to `COc1ccc(-c2c(-c3ccc(S(C)(=O)=O)cc3)oc3ccccc3c2=O)cc1` [Example 10, 3-(4-Methoxyphenyl)-2-(4-(methylsulfonyl)phenyl)-4H-1-benzopyran-4-one], the melting point lay in the range of 212 to 213 °C. Also, the “depressant rate of ear edema, ED50” value in the series on edema in mouse's ear is on record as 0.6 mg/ear, ED50. Further, the inhibition at 10 µg/mL on COX-1 was below 5%. On COX-2, the inhibition at 0.1 µg/mL was determined as 14%, the inhibition at 1 µg/mL came to 67% and the inhibition at 10 µg/mL came out at 86%.

Regarding `CS(=O)(=O)c1ccc(-c2oc3ccccc3c(=O)c2-c2ccc(Cl)c(Cl)c2)cc1` [Example 11, 3-(3,4-Dichlorophenyl)-2-(4-(methylsulfonyl)phenyl)-4H-1-benzopyran-4-one], the melting point is 164 to 165 °C. The inhibition at 10 µg/mL at COX-1 was below 5%. At COX-2, the inhibition at 0.1 µg/mL is 46% and the inhibition at 1 µg/mL is 89%. In series [1] (setting [2]), the inhibition in vivo at 30 mg/kg came to 17%.

`CS(=O)(=O)c1ccc(-c2oc3ccccc3c(=O)c2-c2ccccc2F)cc1` [Example 12, 3-(2-Fluorophenyl)-2-(4-(methylsulfonyl)phenyl)-4H-1-benzopyran-4-one]: the “depressant rate of ear edema, ED50” value in the series with edema in mouse's ear is 0.4 mg/ear, ED50. In addition, in series [1] (setting [2]), the inhibition in vivo at 30 mg/kg came to 20%.

For the compound `CS(=O)(=O)c1ccc(-c2oc3ccccc3c(=O)c2-c2cccnc2)cc1` [Example 15, 2-(4-(Methylsulfonyl)phenyl)-3-(3-pyridinyl)-4H-1-benzopyran-4-one], the melting point fell in the range of 220 to 221 °C. The inhibition at 10 µg/mL on COX-1 is 13%. Further, at COX-2, the inhibition at 1 µg/mL came out at 83% and the inhibition at 10 µg/mL amounted to 90%. The inhibition in vivo at 30 mg/kg in series [1] (setting [2]) amounted to 41%.

As to `CS(=O)(=O)c1ccc(-c2oc3ccccc3c(=O)c2-c2ccc(F)c(Cl)c2)cc1` [Example 26, 3-(3-Chloro-4-fluorophenyl)-2-(4-(methylsulfonyl)phenyl)-4H-1-benzopyran-4-one], the “depressant rate of ear edema, ED50” value in the series on edema in mouse's ear is reported as 0.6 mg/ear, ED50. The inhibition in vivo at 50 mg/kg in series [1] (setting [2]) was found to be 23%.

For the compound `CS(=O)(=O)c1ccc(-c2oc3ccccc3c(=O)c2-c2ccc(Br)cc2)cc1` [Example 28, 3-(4-Bromophenyl)-2-(4-(methylsulfonyl)phenyl)-4H-1-benzopyran-4-one], the “depressant rate of ear edema, ED50” value with edema in mouse's ear is 0.8 mg/ear, ED50.

Consider `CS(=O)(=O)c1ccc(-c2oc3ccc(F)cc3c(=O)c2-c2cccnc2)cc1` [Example 34, 6-Fluoro-2-(4-(methylsulfonyl)phenyl)-3-(3-pyridinyl)-4H-1-benzopyran-4-one], for which the inhibition at 10 µg/mL at COX-1 stood at 12%. Further, on COX-2, the inhibition at 1 µg/mL was found to be 66% and the inhibition at 10 µg/mL is 78%. Also, the inhibition in vivo at 3 mg/kg in series [1] (3 h, 3 mg/kg p.o., read-out: depressant rate of edema rate induced by carrageenan (oral administration), % depression) turned out to be 23%.

On to `CS(=O)(=O)c1ccc(-c2oc3ccccc3c(=S)c2-c2ccc(F)cc2)cc1` [Example 36, 3-(4-Fluorophenyl)-2-(4-(methylsulfonyl)phenyl)-4H-1-benzopyran-4-thione], for which, in the series with edema in mouse's ear, the “depressant rate of ear edema, ED50” value is 1.0 mg/ear, ED50. Also, the inhibition at 10 µg/mL at COX-1 was below 5%. Besides, on COX-2, the inhibition at 0.1 µg/mL stood at 56%, the inhibition at 1 µg/mL was found to be 80% and the inhibition at 10 µg/mL turned out to be 100%. The inhibition in vivo at 30 mg/kg in series [1] (setting [2]) was found to be 20%.

In turn, `CS(=O)(=O)c1ccc(-c2oc3ccccc3c(=S)c2-c2ccccc2)cc1` [Example 37, 2-(4-(Methylsulfonyl)phenyl)-3-phenyl-4H-1-benzopyran-4-thione] gave a melting point of 204 to 206 °C. Further, the inhibition at 10 µg/mL on COX-1 is below 5%. At COX-2, the inhibition at 0.1 µg/mL was found to be 47%, the inhibition at 1 µg/mL was 76% and the inhibition at 10 µg/mL turned out to be 88%. Moreover, in series [1] (setting [2]), the inhibition in vivo at 30 mg/kg came out at 16%.

On to `NS(=O)(=O)c1ccc(-c2oc3ccccc3c(=O)c2-c2ccccc2)cc1` [Example 53, 2-(4-(Aminosulfonyl)phenyl)-3-phenyl-4H-1-benzopyran-4-one], for which the melting point was 218 to 220 °C. Further, on COX-1, the inhibition at 1 µg/mL was 52% and the inhibition at 10 µg/mL turned out to be 61%. Also, at COX-2, the inhibition at 0.1 µg/mL came to 76%, the inhibition at 1 µg/mL turned out to be 90% and the inhibition at 10 µg/mL amounted to 92%.

With `COc1ccc(-c2c(-c3ccc(S(N)(=O)=O)cc3)oc3ccccc3c2=O)cc1` [Example 55, 2-(4-(Aminosulfonyl)phenyl)-3-(4-methoxyphenyl)-4H-1-benzopyran-4-one], the melting point was in the range of 252 to 254 °C. Besides, on COX-1, the inhibition at 1 µg/mL is 66% and the inhibition at 10 µg/mL amounted to 84%. On COX-2, the inhibition at 1 µg/mL was 90% and the inhibition at 10 µg/mL stood at 100%.

The compound `NS(=O)(=O)c1ccc(-c2oc3ccccc3c(=O)c2-c2ccc(Cl)c(Cl)c2)cc1` [Example 57, 2-(4-(Aminosulfonyl)phenyl)-3-(3,4-dichlorophenyl)-4H-1-benzopyran-4-one] came in with a melting point of 215 to 217 °C. In addition, on COX-1, the inhibition at 10 µg/mL was 75%. At COX-2, the inhibition at 0.1 µg/mL came to 48% and the inhibition at 1 µg/mL was determined as 96%.

Regarding `NS(=O)(=O)c1ccc(-c2oc3ccccc3c(=O)c2-c2ccccc2F)cc1` [Example 58, 2-(4-(Aminosulfonyl)phenyl)-3-(2-fluorophenyl)-4H-1-benzopyran-4-one], the melting point is 215 to 217 °C. At COX-1, the inhibition at 1 µg/mL was 34% and the inhibition at 10 µg/mL worked out at 60%. On COX-2, the inhibition at 1 µg/mL is 63% and the inhibition at 10 µg/mL was determined as 96%.

In the case of `COc1ccc2c(c1)c(CC(=O)O)c(C)n2C(=O)c1ccc(Cl)cc1` [indomethacine, reference compound], the “depressant rate of ear edema, ED50” value in the series with edema in mouse's ear was 0.4 mg/ear, ED50. Also, the ED50 in series [1] (3 hours after carrageenan, read-out: depressant rate of edema rate induced by carrageenan (oral administration), ED50) was 4.3 mg/kg.
